Experiment [1] has as its target Human CB1R (Cannabanoid receptor 1) (Homo sapiens (Human), UniProt P21554). The experiment is described as follows: CB-1 in vitro cAMP assay (HTRF). In kind it is cell-based. As to conditions: mean where tested more than once. The method in brief:
(§1)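 HEK-293 cells stably transfected with the human receptor, plated overnight at 4E5 cells/mL. Compounds given as 1/3 serial dilutions from 10 mM DMSO stocks. Stimulation in HBSS/5 mM HEPES/0.1% BSA with 0.5 mM IBMX and forskolin (1.5 μM in buffer); cAMP measured by competitive HTRF immunoassay (d2-cAMP, cryptate anti-cAMP) against a cAMP standard curve.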
Background: cAMP levels reflect the balance of adenylyl cyclase and phosphodiesterase activity.

Experiment [2] addresses Human CB2R (Cannabanoid receptor 2) (Homo sapiens (Human), UniProt P34972). The experiment is described as follows: CB-2 in vitro cAMP assay (HTRF). In kind it is cell-based. As to conditions: mean where tested more than once. The method in brief: as §1

Sequence of Human CB1R (Cannabanoid receptor 1) (P21554 whole entry): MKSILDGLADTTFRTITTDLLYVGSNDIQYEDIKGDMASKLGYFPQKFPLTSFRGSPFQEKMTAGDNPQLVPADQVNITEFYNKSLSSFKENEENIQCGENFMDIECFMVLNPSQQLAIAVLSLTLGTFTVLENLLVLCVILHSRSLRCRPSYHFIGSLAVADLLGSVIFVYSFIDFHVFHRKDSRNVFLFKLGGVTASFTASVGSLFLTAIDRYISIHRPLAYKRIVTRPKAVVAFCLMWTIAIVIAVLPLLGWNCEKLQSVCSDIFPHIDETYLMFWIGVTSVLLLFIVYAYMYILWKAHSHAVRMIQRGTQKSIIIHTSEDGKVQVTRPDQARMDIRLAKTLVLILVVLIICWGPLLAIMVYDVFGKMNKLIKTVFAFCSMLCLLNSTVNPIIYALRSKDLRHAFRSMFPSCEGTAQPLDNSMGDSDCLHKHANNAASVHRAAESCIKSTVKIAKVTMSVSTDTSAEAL
Sequence of Human CB2R (Cannabanoid receptor 2) (P34972 whole entry): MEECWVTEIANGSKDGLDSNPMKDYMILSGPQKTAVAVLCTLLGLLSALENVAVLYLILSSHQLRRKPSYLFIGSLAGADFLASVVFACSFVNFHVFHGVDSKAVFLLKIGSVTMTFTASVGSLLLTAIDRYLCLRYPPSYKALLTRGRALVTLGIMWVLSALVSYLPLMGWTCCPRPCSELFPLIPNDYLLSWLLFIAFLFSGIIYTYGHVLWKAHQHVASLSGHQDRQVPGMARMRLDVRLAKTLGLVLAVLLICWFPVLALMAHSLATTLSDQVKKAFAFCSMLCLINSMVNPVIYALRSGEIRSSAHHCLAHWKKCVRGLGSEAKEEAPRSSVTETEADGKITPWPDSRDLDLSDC

In the case of `COC(=O)c1ccc(N2CCC(Nc3ncnc4ccc(C(c5ccc(Cl)cc5)c5ccc(Cl)cc5)cc34)CC2)cc1` [Compound #94, methyl 4-(4-((6-(bis(4-chlorophenyl)methyl)quinazolin-4-yl)amino)piperidin-1-yl)benzoate], the EC50 came to 4 nM in experiment [1] and 68 nM in experiment [2].
Turning to `NC(=O)CS(=O)(=O)N1CCC(Nc2ncnc3ccc(C(c4ccc(Cl)cc4)c4ccc(Cl)cc4)cc23)CC1` [Compound #98, 2-((4-((6-(bis(4-chlorophenyl)methyl)quinazolin-4-yl)amino)piperidin-1-yl)sulfonyl)acetamide], the EC50 is 232 nM in experiment [1] and 7900 nM in experiment [2].
Regarding `OC1(c2ccccc2)CCC(Nc2ncnc3ccc(C(c4ccc(Cl)cc4)c4ccc(Cl)cc4)cc23)CC1` (centres unmarked) [Compound #99, 4-((6-(bis(4-chlorophenyl)methyl)quinazolin-4-yl)amino)-1-phenylcyclohexanol], the EC50 in experiment [1] was 1 nM; in experiment [2], 8490 nM.
For `CS(=O)(=O)Nc1nc(NC2CCN(S(=O)(=O)C(F)(F)F)CC2)c2cc(C(c3ccc(Cl)cc3)c3ccc(Cl)cc3)ccc2n1` [Compound #100, N-(6-(bis(4-chlorophenyl)methyl)-4-((1-((trifluoromethyl)sulfonyl)piperidin-4-yl)amino)quinazolin-2-yl)methanesulfonamide] the same measures were 432 nM and greater than 10000 nM.
Regarding `O=C1CC(Nc2ncnc3ccc(C(c4ccc(Cl)cc4)c4ccc(Cl)cc4)cc23)CCN1c1ccccc1` (centres unmarked) [Compound #102, 4-((6-(bis(4-chlorophenyl)methyl)quinazolin-4-yl)amino)-1-phenylpiperidin-2-one], the EC50 was 10 nM in experiment [1] and greater than 10000 nM in experiment [2].
For `COc1nc(NC2CCN(S(=O)(=O)C(F)(F)F)CC2)c2cc(C(c3ccc(Cl)cc3)c3ccc(Cl)cc3)ccc2n1` [Compound #103, 6-(bis(4-chlorophenyl)methyl)-2-methoxy-N-(1-((trifluoromethyl)sulfonyl)piperidin-4-yl)quinazolin-4-amine] the same measures were 4 nM and greater than 10000 nM.
For `O=S(=O)(NC1CCN(c2ncnc3ccc(C(c4ccc(Cl)cc4)c4ccc(Cl)cc4)cc23)CC1)C(F)(F)F` [Compound #104, N-(1-(6-(bis(4-chlorophenyl)methyl)quinazolin-4-yl)piperidin-4-yl)-1,1,1-trifluoromethanesulfonamide] the same measures were 68 nM and greater than 10000 nM.
For `CC(=O)Nc1nc(NC2CCN(S(=O)(=O)C(F)(F)F)CC2)c2cc(C(c3ccc(Cl)cc3)c3ccc(Cl)cc3)ccc2n1` [Compound #106, N-(6-(bis(4-chlorophenyl)methyl)-4-((1-((trifluoromethyl)sulfonyl)piperidin-4-yl)amino)quinazolin-2-yl)acetamide] the same measures were 70 nM and 5700 nM.
Consider `Nc1nc(NC2CCN(S(=O)(=O)C(F)(F)F)CC2)c2cc(C(c3ccc(Cl)cc3)c3ccc(Cl)cc3)ccc2n1` [Compound #107, 6-(bis(4-chlorophenyl)methyl)-N4-(1-((trifluoromethyl)sulfonyl)piperidin-4-yl)quinazoline-2,4-diamine], for which the concentration for a half-maximal effect (EC50) is 75 nM in experiment [1] and greater than 10000 nM in experiment [2].
Consider `O=S(=O)(N1CCC(Nc2nc(C3CC3)nc3ccc(C(c4ccc(Cl)cc4)c4ccc(Cl)cc4)cc23)CC1)C(F)(F)F` [Compound #108, 6-(bis(4-chlorophenyl)methyl)-2-cyclopropyl-N-(1-((trifluoromethyl)sulfonyl)piperidin-4-yl)quinazolin-4-amine], for which the concentration for a half-maximal effect (EC50) in experiment [1] was 8 nM; in experiment [2], greater than 10000 nM.
For `COC(=O)CS(=O)(=O)N1CCC(Nc2ncnc3ccc(C(c4ccc(Cl)cc4)c4ccc(Cl)cc4)cc23)CC1` [Compound #110, Methyl 2-((4-((6-(bis(4-chlorophenyl)methyl)quinazolin-4-yl)amino)piperidin-1-yl)sulfonyl)acetate] the same measures were 41 nM and 3220 nM.
For `CNc1nc(NC2CCN(S(=O)(=O)C(F)(F)F)CC2)c2cc(C(c3ccc(Cl)cc3)c3ccc(Cl)cc3)ccc2n1` [Compound #113, 6-(bis(4-chlorophenyl)methyl)-N2-methyl-N4-(1-((trifluoromethyl)sulfonyl)piperidin-4-yl)quinazoline-2,4-diamine] the same measures were 254 nM and greater than 10000 nM.
For `O=S(=O)(N1CCC(Nc2nc(O)nc3ccc(C(c4ccc(Cl)cc4)c4ccc(Cl)cc4)cc23)CC1)C(F)(F)F` [Compound #114, 6-(bis(4-chlorophenyl)methyl)-4-((1-((trifluoromethyl)sulfonyl)piperidin-4-yl)amino)quinazolin-2-ol] the same measures were 32 nM and 5690 nM.
Take `N#CC1(c2ccccc2)CCC(Nc2ncnc3ccc(C(c4ccc(Cl)cc4)c4ccc(Cl)cc4)cc23)CC1` (centres unmarked) [Compound #118, 4-((6-(bis(4-chlorophenyl)methyl)quinazolin-4-yl)amino)-1-phenylcyclohexanecarbonitrile]: the EC50 is 11 nM in experiment [1] and 196 nM in experiment [2].
`O=S(=O)(N1CCCC1)N1CCC(Nc2ncnc3ccc(C(c4ccc(Cl)cc4)c4ccc(Cl)cc4)cc23)CC1` [Compound #120, 6-(bis(4-chlorophenyl)methyl)-N-(1-(pyrrolidin-1-ylsulfonyl)piperidin-4-yl)quinazolin-4-amine]: the results for the EC50 in experiment [1] and in experiment [2] were 4 nM and 2150 nM, respectively.
For `FC(F)(F)c1ccc(Nc2ncnc3ccc(C(c4ccc(Cl)cc4)c4ccc(Cl)cc4)cc23)cc1Cl` [Compound #122, 6-(bis(4-chlorophenyl)methyl)-N-(3-chloro-4-(trifluoromethyl)phenyl)quinazolin-4-amine] the same measures were 52 nM and greater than 10000 nM.
For `FC(F)(F)CN1CCC(Nc2ncnc3ccc(C(c4ccc(Cl)cc4)c4ccc(Cl)cc4)cc23)CC1` [Compound #123, 6-(bis(4-chlorophenyl)methyl)-N-(1-(2,2,2-trifluoroethyl)piperidin-4-yl)quinazolin-4-amine] the same measures were 2 nM and 490 nM.
For `Clc1ccc(C(c2ccc(Cl)cc2)c2ccc3ncnc(NC4CCN(c5ccccn5)CC4)c3c2)cc1` [Compound #130, 6-(bis(4-chlorophenyl)methyl)-N-(1-(pyridin-2-yl)piperidin-4-yl)quinazolin-4-amine] the same measures were 2 nM and 154 nM.
Consider `CN(Cc1ccc(C(F)(F)F)cc1)c1ncnc2ccc(C(c3ccc(Cl)cc3)c3ccc(Cl)cc3)cc12` [Compound #132, 6-(bis(4-chlorophenyl)methyl)-N-methyl-N-(4-(trifluoromethyl)benzyl)quinazolin-4-amine], for which the EC50 in experiment [1] is 173 nM; in experiment [2], greater than 14000 nM.
Regarding `O=C(CC(F)(F)F)N1CCC(Nc2ncnc3ccc(C(c4ccc(Cl)cc4)c4ccc(Cl)cc4)cc23)CC1` [Compound #133, 1-(4-((6-(bis(4-chlorophenyl)methyl)quinazolin-4-yl)amino)piperidin-1-yl)-3,3,3-trifluoropropan-1-one], the concentration giving a half-maximal response (EC50) in experiment [1] was determined as 7 nM; in experiment [2], 2210 nM.
For `O=S(=O)(c1ccc(Nc2ncnc3ccc(C(c4ccc(Cl)cc4)c4ccc(Cl)cc4)cc23)cc1)C(F)(F)F` [Compound #134, 6-(bis(4-chlorophenyl)methyl)-N-(4-((trifluoromethyl)sulfonyl)phenyl)quinazolin-4-amine] the same measures were 194 nM and greater than 10000 nM.
For `FC(F)(F)c1cccc(CNc2ncnc3ccc(C(c4ccc(Cl)cc4)c4ccc(Cl)cc4)cc23)c1` [Compound #136, 6-(bis(4-chlorophenyl)methyl)-N-(3-(trifluoromethyl)benzyl)quinazolin-4-amine] the same measures were 3 nM and greater than 10000 nM.
For `Clc1ccc(C(c2ccc(Cl)cc2)c2ccc3ncnc(NC4CCN(c5ccccc5)CC4)c3c2)cc1` [Compound #137, 6-(bis(4-chlorophenyl)methyl)-N-(1-phenylpiperidin-4-yl)quinazolin-4-amine] the same measures were 2 nM and 280 nM.
On to `Clc1ccc(C(c2ccc(Cl)cc2)c2ccc3ncnc(NC4CCN(c5ncccn5)CC4)c3c2)cc1` [Compound #139, 6-(bis(4-chlorophenyl)methyl)-N-(1-(pyrimidin-2-yl)piperidin-4-yl)quinazolin-4-amine], for which the EC50 was found to be 2 nM in experiment [1] and 771 nM in experiment [2].
Take `O=S(=O)(c1ccc(Nc2ncnc3ccc(C(c4ccc(Cl)cc4)c4nccs4)cc23)cc1)C(F)(F)F` (centres unmarked) [Compound #142, 6-((4-chlorophenyl)(thiazol-2-yl)methyl)-N-(4-((trifluoromethyl)sulfonyl)phenyl)quinazolin-4-amine]: the EC50 in experiment [1] was 574 nM; in experiment [2], greater than 10000 nM.
For `FC(F)(F)c1ccc(Nc2ncnc3ccc(C(c4ccc(Cl)cc4)c4ccc(Cl)cc4)cc23)cc1` [Compound #143, 6-(bis(4-chlorophenyl)methyl)-N-(4-(trifluoromethyl)phenyl)quinazolin-4-amine] the same measures were 91 nM and greater than 10000 nM.
For `FC(F)(F)c1ccc(Nc2ncnc3ccc(C(c4ccc(Cl)cc4)c4nccs4)cc23)cc1` (centres unmarked) [Compound #144, 6-((4-chlorophenyl)(thiazol-2-yl)methyl)-N-(4-(trifluoromethyl)phenyl)quinazolin-4-amine] the same measures were 163 nM and 2750 nM.
For `O=S(=O)(N1CCC(Nc2ncnc3ccc(C(c4ccc(Cl)cc4)c4ccc(Cl)cc4)cc23)CC1)C(F)(F)F` [Compound #145, 6-(bis(4-chlorophenyl)methyl)-N-(1-((trifluoromethyl)sulfonyl)piperidin-4-yl)quinazolin-4-amine] the same measures were 5 nM and 801 nM.

As usually defined, the EC50 is the concentration that produces a half-maximal response. A lower EC50 goes with an effect from little substance.

The values are drawn from patent US9682955B2, “Quinazoline derivatives useful as CB-1 inverse agonists” (Janssen Pharmaceutica NV, priority 2014, dated 2017).
